In patent publication US20260232767A1, “INTERLEUKIN-23 RECEPTOR ANTAGONIST PEPTIDES FOR USE IN THE TREATMENT OF PSORIASIS” (Janssen Pharmaceutica NV, priority 2023, published 2026):

Test system: subjects with moderate-to-severe plaque psoriasis
Experiment: Safety, adverse events, Example 2 through Week 56
Format: in vivo, human
Conditions: Combined; through Week 56
Text: The LTE safety analysis was based on randomized participants in Example who entered the present long-term extension study and received at least one dose of study intervention (including a partial dose) during the study period.

SMILES: CC(=O)NCCCC[C@@H]1NC(=O)[C@H](Cc2c[nH]c3c(C)cccc23)NC(=O)[C@H]([C@@H](C)O)NC(=O)[C@H](CC(N)=O)NC(=O)[C@@H](NC(C)=O)C(C)(C)SSC(C)(C)[C@@H](C(=O)N[C@@H](Cc2ccc(OCCN)cc2)C(=O)N[C@@H](Cc2ccc3ccccc3c2)C(=O)NC2(C(=O)N[C@@H](CCC(=O)O)C(=O)N[C@@H](CC(N)=O)C(=O)N[C@@H](Cc3cccnc3)C(=O)N(C)CC(N)=O)CCOCC2)NC1=O [IL-23 receptor antagonist peptide, Ac-[Pen]*-N-T-[W(7-Me)]-[Lys(Ac)]-[Pen]*-Phe[4-(2-aminoethoxy)]-[2-Nal]-[THP]-E-N-[3-Pal]-Sarc-NH2 (*[Pen]-[Pen]* formdisulfidebond)]
- Coronary artery disease: % of subjects: (0.4%)
- Coronary artery disease: number of subjects: 1
- Cough: % of subjects: (3.2%)
- Cough: number of subjects: 8
- Decreased appetite: % of subjects: (0.4%)
- Decreased appetite: number of subjects: 1
- Depression: % of subjects: (0.8%)
- Depression: number of subjects: 2
- Dermal cyst: % of subjects: (0.4%)
- Dermal cyst: number of subjects: 1
- Dermatitis acneiform: % of subjects: (0.4%)
- Dermatitis acneiform: number of subjects: 1
- Dermatitis contact: % of subjects: (1.6%)
- Dermatitis contact: number of subjects: 4
- Diabetes mellitus: % of subjects: (0.8%)
- Diabetes mellitus: number of subjects: 2
- Diffuse alopecia: % of subjects: (0.4%)
- Diffuse alopecia: number of subjects: 1
- Dysuria: % of subjects: (0.4%)
- Dysuria: number of subjects: 1
- Ear and labyrinth disorders: % of subjects: (1.2%)
- Ear and labyrinth disorders: number of subjects: 3
- Endocrine disorders: % of subjects: (0.4%)
- Endocrine disorders: number of subjects: 1
- Eye disorders: % of subjects: (1.2%)
- Eye disorders: number of subjects: 3
- Eyelid skin dryness: % of subjects: (0.4%)
- Eyelid skin dryness: number of subjects: 1
- Fatigue: % of subjects: (1.6%)
- Fatigue: number of subjects: 4
- General disorders and administration site conditions: % of subjects: (5.3%)
- General disorders and administration site conditions: number of subjects: 13
- Goiter: % of subjects: (0.4%)
- Goiter: number of subjects: 1
- Haemochromatosis: % of subjects: (0.4%)
- Haemochromatosis: number of subjects: 1
- Hand dermatitis: % of subjects: (0.4%)
- Hand dermatitis: number of subjects: 1
- Hematuria: % of subjects: (0.8%)
- Hematuria: number of subjects: 2
- Hepatobiliary disorders: % of subjects: (1.2%)
- Hepatobiliary disorders: number of subjects: 3
- Hypercholesterolemia: % of subjects: (0.4%)
- Hypercholesterolemia: number of subjects: 1
- Hyperglycemia: % of subjects: (1.6%)
- Hyperglycemia: number of subjects: 4
- Hyperlipidemia: % of subjects: (0.4%)
- Hyperlipidemia: number of subjects: 1
- Hypertension: % of subjects: (2.8%)
- Hypertension: number of subjects: 7
- Hypertransaminasemia: % of subjects: (0.4%)
- Hypertransaminasemia: number of subjects: 1
- Hypertriglyceridemia: % of subjects: (0.4%)
- Hypertriglyceridemia: number of subjects: 1
- Hypoacusis: % of subjects: (0.4%)
- Hypoacusis: number of subjects: 1
- Immune system disorders: % of subjects: (0.8%)
- Immune system disorders: number of subjects: 2
- Influenza like illness: % of subjects: (0.4%)
- Influenza like illness: number of subjects: 1
- Insomnia: % of subjects: (0.8%)
- Insomnia: number of subjects: 2
- Intertrigo: % of subjects: (0.4%)
- Intertrigo: number of subjects: 1
- Ketonuria: % of subjects: (0.4%)
- Ketonuria: number of subjects: 1
- Leukocyturia: % of subjects: (0.4%)
- Leukocyturia: number of subjects: 1
- Leukopenia: % of subjects: (0.4%)
- Leukopenia: number of subjects: 1
- Libido decreased: % of subjects: (0.4%)
- Libido decreased: number of subjects: 1
- Liver disorder: number of subjects: 0
- Lymphopenia: % of subjects: (0.8%)
- Lymphopenia: number of subjects: 2
- Menopause: % of subjects: (0.4%)
- Menopause: number of subjects: 1
- Metabolism and nutrition disorders: % of subjects: (4.5%)
- Metabolism and nutrition disorders: number of subjects: 11
- Neoplasms benign, malignant and unspecified (incl cysts and polyps): % of subjects: (2.4%)
- Neoplasms benign, malignant and unspecified (incl cysts and polyps): number of subjects: 6
- Nephrolithiasis: % of subjects: (0.4%)
- Nephrolithiasis: number of subjects: 1
- Neutropenia: % of subjects: (0.8%)
- Neutropenia: number of subjects: 2
- Night sweats: % of subjects: (0.4%)
- Night sweats: number of subjects: 1
- Non-cardiac chest pain: % of subjects: (0.4%)
- Non-cardiac chest pain: number of subjects: 1
- Ocular cyst: % of subjects: (0.4%)
- Ocular cyst: number of subjects: 1
- Oedema peripheral: % of subjects: (1.6%)
- Oedema peripheral: number of subjects: 4
- Oropharyngeal pain: % of subjects: (0.8%)
- Oropharyngeal pain: number of subjects: 2
- Procedural pain: % of subjects: (0.4%)
- Procedural pain: number of subjects: 1
- Productive cough: % of subjects: (0.4%)
- Productive cough: number of subjects: 1
- Proteinuria: % of subjects: (0.4%)
- Proteinuria: number of subjects: 1
- Pruritus: % of subjects: (0.8%)
- Pruritus: number of subjects: 2
- Psoriasis: % of subjects: (1.2%)
- Psoriasis: number of subjects: 3
- Psychiatric disorders: % of subjects: (2.0%)
- Psychiatric disorders: number of subjects: 5
- Pyrexia: % of subjects: (0.8%)
- Pyrexia: number of subjects: 2
- Rash pruritic: number of subjects: 0
- Renal and urinary disorders: % of subjects: (3.2%)
- Renal and urinary disorders: number of subjects: 8
- Renal mass: % of subjects: (0.4%)
- Renal mass: number of subjects: 1
- Respiratory, thoracic and mediastinal disorders: % of subjects: (5.3%)
- Respiratory, thoracic and mediastinal disorders: number of subjects: 13
- Retinal vein occlusion: % of subjects: (0.4%)
- Retinal vein occlusion: number of subjects: 1
- Rhinorrhoea: % of subjects: (0.4%)
- Rhinorrhoea: number of subjects: 1
- Seasonal allergy: % of subjects: (0.8%)
